Reference: US20060069132A1, “Azolecarboxamide herbicides” (priority 2004, published 2006)

How the values were obtained:
lambsquarters = test: Test B pre-/postemergence herbicide test; type: in vivo, Chenopodium album; conditions: for Plant response rating, Lambsquarters: preemergence; for Lambsquarters plant response rating: postemergence, visual rating, scale 0 (no effect) to 100 (complete control)
In short: (§1)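 Pre: seeds sown, then sprayed. Post: 1–4-leaf plants (2–18 cm) sprayed at the same time. Paddy: flooded, treated at 2-leaf stage. Formulation: non-phytotoxic solvent with surfactant. Greenhouse 13–15 days; visual 0–100 score relative to controls.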

Surinam grass = test: Test B pre-/postemergence herbicide test; type: in vivo, Urochloa decumbens; conditions: for Plant response rating, Surinam Grass: preemergence; for Surinam Grass plant response rating: postemergence, visual rating, scale 0 (no effect) to 100 (complete control)
In short: as §1

blackgrass = test: Test B postemergence herbicide test; type: in vivo, Alopecurus myosuroides; conditions: postemergence, visual rating, scale 0 (no effect) to 100 (complete control)
In short: (§2)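 Read-out: visual comparison with controls, scored 0 to 100, where 100 means complete control and 0 no effect. Formulated chemicals were applied postemergence to plants 2–18 cm tall (1- to 4-leaf), or to flooded-paddy plants at the 2-leaf stage, then held 13 to 15 days under glass.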

rice [1] = test: Test B flooded paddy test; type: in vivo, Oryza sativa; conditions: 1000 g ai/ha, visual rating, scale 0 to 100 (0 no effect, 100 complete control), 13 to 15 days
In short: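 Plants grow to 1- to 4-leaf stage (2–18 cm) for postemergence spraying, or to 2-leaf stage for the paddy test. Formulated compound is applied. Greenhouse holding lasts 13–15 days. Response is scored visually relative to controls, 0 no effect to 100 complete control; a dash means no result.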

giant foxtail [2] = test: Test A pre-/postemergence herbicide test; type: in vivo, Setaria faberi
In short: (§3)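 Pre: seeded sandy loam, directed soil spray, compound in non-phytotoxic solvent + surfactant. Post: 1–2-leaf plants (2–10 cm), sprayed to runoff. Greenhouse ~10 d; visual injury vs untreated, 0–100 scale.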

velvetleaf [3] = test: Test B pre-/postemergence herbicide test; type: in vivo, Abutilon theophrasti; conditions: for Plant response rating, Velvetleaf: preemergence; for Velvetleaf plant response rating: postemergence, visual rating, scale 0 (no effect) to 100 (complete control)
In short: as §1

barnyardgrass [4] = test: Test B flooded paddy test; type: in vivo, Echinochloa crus-galli; conditions: 1000 g ai/ha, visual rating, scale 0 to 100 (0 no effect, 100 complete control), 13 to 15 days
In short: as §2

corn = test: Test B pre-/postemergence herbicide test; type: in vivo, Zea mays; conditions: for Plant response rating, Corn: preemergence; for Corn plant response rating: postemergence, visual rating, scale 0 (no effect) to 100 (complete control)
In short: as §1

barnyardgrass [5] = test: Test B pre-/postemergence herbicide test; type: in vivo, Echinochloa crus-galli; conditions: for Plant response rating, Barnyardgrass: preemergence; for Barnyardgrass plant response rating: postemergence, visual rating, scale 0 (no effect) to 100 (complete control)
In short: as §1

rice [6] = test: Test B pre-/postemergence herbicide test; type: in vivo, Oryza sativa; conditions: 500 g ai/ha; visual rating 0-100, 0 no effect, 100 complete control; preemergence
In short: as §1

wheat = test: Test B postemergence herbicide test; type: in vivo, Triticum aestivum; design: key to Wheat plant response rating: 0 = no effect, 100 = complete control; conditions: postemergence, visual rating, scale 0 (no effect) to 100 (complete control)
In short: (§4)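 Greenhouse test; postemergence application to plants at 1–4 leaves (2–18 cm); paddy species at 2 leaves; evaluated visually vs controls at 13–15 days; scale 0–100 (100 = complete control).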

[7] = tested on: small flower umbrella sedge; test: Test B flooded paddy test; type: in vivo, Cyperus difformis; conditions: 1000 g ai/ha, visual rating, scale 0 to 100 (0 no effect, 100 complete control), 13 to 15 days
In short: as §2

velvetleaf [8] = test: Test A pre-/postemergence herbicide test; type: in vivo, Abutilon theophrasti
In short: as §3

wild oat = test: Test B postemergence herbicide test; type: in vivo, Avena fatua; conditions: postemergence, visual rating, scale 0 (no effect) to 100 (complete control)
In short: as §4

cocklebur = test: Test B pre-/postemergence herbicide test; type: in vivo, Xanthium strumarium; conditions: for Plant response rating, Cocklebur: preemergence; for Cocklebur plant response rating: postemergence, visual rating, scale 0 (no effect) to 100 (complete control)
In short: as §1

large crabgrass [9] = test: Test B pre-/postemergence herbicide test; type: in vivo, Digitaria sanguinalis; conditions: for Plant response rating, Crabgrass, Large: preemergence; for Crabgrass, Large plant response rating: postemergence, visual rating, scale 0 (no effect) to 100 (complete control)
In short: as §1

pigweed = test: Test B pre-/postemergence herbicide test; type: in vivo, Amaranthus retroflexus; conditions: for Plant response rating, Pigweed: preemergence; for Pigweed plant response rating: postemergence, visual rating, scale 0 (no effect) to 100 (complete control)
In short: as §1

redroot pigweed = test: Test A pre-/postemergence herbicide test; type: in vivo, Amaranthus retroflexus
In short: as §3

large crabgrass [10] = test: Test A pre-/postemergence herbicide test; type: in vivo, Digitaria sanguinalis
In short: as §3

ducksalad = test: Test B flooded paddy test; type: in vivo, Heteranthera limosa; conditions: 1000 g ai/ha, visual rating, scale 0 to 100 (0 no effect, 100 complete control), 13 to 15 days
In short: as §2

morningglory [11] = test: Test A pre-/postemergence herbicide test; type: in vivo, Ipomoea spp.
In short: as §3

barnyardgrass [12] = test: Test A pre-/postemergence herbicide test; type: in vivo, Echinochloa crus-galli
In short: as §3

morningglory [13] = test: Test B pre-/postemergence herbicide test; type: in vivo, Ipomoea coccinea; conditions: for Morningglory plant response rating: postemergence, visual rating, scale 0 (no effect) to 100 (complete control)
In short: as §1

giant foxtail [14] = test: Test B pre-/postemergence herbicide test; type: in vivo, Setaria faberi; conditions: for Plant response rating, Foxtail, Giant: preemergence; for Foxtail, Giant plant response rating: postemergence, visual rating, scale 0 (no effect) to 100 (complete control)
In short: as §1

[15] = 500 g ai/ha, visual rating 0-100, 0 no effect, 100 complete control
[16] = 125 g ai/ha, 0 to 100 scale, 0 is no effect, 100 is complete control
[17] = Postemergence, 250 g ai/ha, 0 to 100 scale, 0 no effect, 100 complete control
[18] = Postemergence, 1000 g ai/ha, 0 to 100 scale, 0 no effect, 100 complete control
[19] = Preemergence, 1000 g ai/ha, visual rating, 0 to 100 scale (0 no effect, 100 complete control)
[20] = preemergence, 250 g ai/ha, visual injury, 0 to 100 scale (0 no effect, 100 complete control)

Compound: CCn1nc(C(C)(C)C)cc1C(=O)Nc1cccc([S+]([O-])C(F)(F)F)c1 (centres unmarked) [Compound 135]
- Plant response rating, Lambsquarters (lambsquarters; [15]): 100
- Lambsquarters plant response rating (lambsquarters; 125 g ai/ha): 70
- Lambsquarters plant response rating (lambsquarters; 500 g ai/ha): 80
- Plant response rating, Lambsquarters (lambsquarters; [16]): 30
- Plant response rating, Surinam Grass (Surinam grass; [15]): 30
- Surinam Grass plant response rating (Surinam grass; 125 g ai/ha): 30
- Surinam Grass plant response rating (Surinam grass; 500 g ai/ha): 40
- Plant response rating, Surinam Grass (Surinam grass; [16]): 10
- Blackgrass plant response rating (blackgrass; 125 g ai/ha): 0
- Blackgrass plant response rating (blackgrass; 500 g ai/ha): 0
- Rice plant response rating (rice [1]): 60
- Foxtail, Giant plant response rating (giant foxtail [2]; [17]): 20
- Plant response rating, Foxtail, Giant (giant foxtail [2]; [18]): 30
- Foxtail, Giant plant response rating (giant foxtail [2]; [19]): 50
- Foxtail, Giant plant response rating (giant foxtail [2]; [20]): 10
- Plant response rating, Velvetleaf (velvetleaf [3]; [15]): 50
- Velvetleaf plant response rating (velvetleaf [3]; 125 g ai/ha): 20
- Velvetleaf plant response rating (velvetleaf [3]; 500 g ai/ha): 30
- Plant response rating, Velvetleaf (velvetleaf [3]; [16]): 30
- Barnyardgrass plant response rating (barnyardgrass [4]): 60
- Plant response rating, Corn (corn; [15]): 0
- Corn plant response rating (corn; 125 g ai/ha): 20
- Corn plant response rating (corn; 500 g ai/ha): 30
- Plant response rating, Corn (corn; [16]): 0
- Plant response rating, Barnyardgrass (barnyardgrass [5]; [15]): 50
- Barnyardgrass plant response rating (barnyardgrass [5]; 125 g ai/ha): 20
- Barnyardgrass plant response rating (barnyardgrass [5]; 500 g ai/ha): 40
- Plant response rating, Barnyardgrass (barnyardgrass [5]; [16]): 40
- Plant response rating, Rice (rice [6]): 30
- Wheat plant response rating (wheat; 125 g ai/ha): 20
- Wheat plant response rating (wheat; 500 g ai/ha): 20
- Sedge, Umbrella plant response rating [7]: 70
- Velvetleaf plant response rating (velvetleaf [8]; [17]): 15
- Plant response rating, Velvetleaf (velvetleaf [8]; [18]): 25
- Velvetleaf plant response rating (velvetleaf [8]; [19]): 50
- Velvetleaf plant response rating (velvetleaf [8]; [20]): 5
- Oat, Wild plant response rating (wild oat; 125 g ai/ha): 20
- Oat, Wild plant response rating (wild oat; 500 g ai/ha): 20
- Plant response rating, Cocklebur (cocklebur; [15]): 0
- Cocklebur plant response rating (cocklebur; 125 g ai/ha): 40
- Cocklebur plant response rating (cocklebur; 500 g ai/ha): 90
- Plant response rating, Cocklebur (cocklebur; [16]): 0
- Plant response rating, Crabgrass, Large (large crabgrass [9]; [15]): 90
- Crabgrass, Large plant response rating (large crabgrass [9]; 125 g ai/ha): 20
- Crabgrass, Large plant response rating (large crabgrass [9]; 500 g ai/ha): 30
- Plant response rating, Crabgrass, Large (large crabgrass [9]; [16]): 50
- Plant response rating, Pigweed (pigweed; [15]): 100
- Pigweed plant response rating (pigweed; 125 g ai/ha): 80
- Pigweed plant response rating (pigweed; 500 g ai/ha): 90
- Plant response rating, Pigweed (pigweed; [16]): 60
- Pigweed plant response rating (redroot pigweed; [17]): 80
- Plant response rating, Pigweed (redroot pigweed; [18]): 85
- Pigweed plant response rating (redroot pigweed; [19]): 85
- Pigweed plant response rating (redroot pigweed; [20]): 55
- Crabgrass, Large plant response rating (large crabgrass [10]; [17]): 20
- Plant response rating, Crabgrass, Large (large crabgrass [10]; [18]): 30
- Crabgrass, Large plant response rating (large crabgrass [10]; [19]): 90
- Crabgrass, Large plant response rating (large crabgrass [10]; [20]): 40
- Ducksalad plant response rating (ducksalad): 80
- Morningglory plant response rating (morningglory [11]; [17]): 10
- Plant response rating, Morningglory (morningglory [11]; [18]): 10
- Morningglory plant response rating (morningglory [11]; [19]): 25
- Morningglory plant response rating (morningglory [11]; [20]): 0
- Barnyardgrass plant response rating (barnyardgrass [12]; [17]): 30
- Plant response rating, Barnyardgrass (barnyardgrass [12]; [18]): 50
- Barnyardgrass plant response rating (barnyardgrass [12]; [19]): 65
- Barnyardgrass plant response rating (barnyardgrass [12]; [20]): 35
- Morningglory plant response rating (morningglory [13]; 125 g ai/ha): 30
- Morningglory plant response rating (morningglory [13]; 500 g ai/ha): 50
- Plant response rating, Morningglory (morningglory [13]; preemergence, 125 g ai/ha, 0 to 100 scale, 0 is no effect, 100 is complete control): 10
- Plant response rating, Foxtail, Giant (giant foxtail [14]; [15]): 20
- Foxtail, Giant plant response rating (giant foxtail [14]; 125 g ai/ha): 30
- Foxtail, Giant plant response rating (giant foxtail [14]; 500 g ai/ha): 40
- Plant response rating, Foxtail, Giant (giant foxtail [14]; [16]): 10
